Data published in paper PMC10046961, “High-Throughput Screening Assay for Detecting Drug-Induced Changes in Synchronized Neuronal Oscillations and Potential Seizure Risk Based on Ca^2+ Fluorescence Measurements in Human Induced Pluripotent Stem Cell (hiPSC)-Derived Neuronal 2D and 3D Cultures” (Cells, 2023).
Like-named read-outs stand apart in the source and are kept apart here. Marks after values point to notes of the source that are not given here.

Columns and labels:
[1] = system: hiPSC-derived neurons co-cultured with human primary astrocytes in 2D; assay: Ca2+ transient oscillation assay (FDSS), 2D co-culture; assay type: cell-based; conditions: for effect on peak number / Ca2+ neuronal oscillations, in words: 2D format; for activation at 0.37 µM / activation at 1.11 µM / activation at 3.33 µM / activation at 10 µM: Homo sapiens, 1 h
From the text: (§1) In this study, we used cryopreserved excitatory neurons that were differentiated from human induced pluripotent stem cells (hiPSCs; Cat #: EX-SeV-CW50065) (Elixirgen Scientific, Inc., Baltimore, MD, USA). The hiPSCs used, namely, CW50065 were derived from a healthy person and distributed by the California Institute of Regenerative Medicine Human Induced Pluripotent Stem Cell Repository. Human iPSC-derived excitatory neurons were differentiated from CW50065 using a proprietary cocktail of differentiation-inducing factors called Quick-Neuron™ EX-SeV (Batch number: EX-SeV-CW50065-L; Elixirgen Scientific, Inc.), cryopreserved 3 days after differentiation induction and distributed. Human iPSC-derived excitatory neurons were recovered from cryopreservation and maintained essentially as instructed by the manufacturer.
(§2) Cryopreserved human primary astrocytes (#N7805100, Thermo Fisher Scientific, Waltham, MA, USA) were recovered as instructed by the manufacturer and seeded in a 10 cm dish at the density of 2,000,000 cells. The culture was maintained using the Human Astrocytes Kit (#N7805200, Thermo Fisher Scientific) for 12 days. Half of the culture medium was replaced with fresh medium every 2–3 days during the culture period. These astrocytes were harvested using StemPro™ Accutase™ Cell Dissociation Reagent (#A1110501, Thermo Fisher Scientific) when they reached confluency. These cells were cryopreserved in STEM-CELLBANKER® GMP grade (ZENOGEN PHARMA, Kohriyama, Fukushima Japan) at the density of 2,000,000 cells per vial as working stocks for co-culture with neurons in 2D and 3D conditions described below. After a working stock was recovered, astrocytes were directly mixed with hiPSC-derived neurons for plating without further expansion.
Live neurons (hiPSC neurons) and human primary astrocytes were recovered from cryopreservation as described above and seeded in each well of 384-well plates at the density of 10,000 cells (HiPSC-cortical neurons) and human primary astrocytes at 2500 cells (ratio 4:1). These co-cultures were maintained under the medium conditions recommended by the manufacturer, namely Medium N(G2P), to complete the differentiation of excitatory neurons for the first week. […] Half of the culture medium was replaced with fresh medium every 3–4 days during the culture period.
After the incubation, the culture medium containing Cal-520 was replaced with 50 μL of HBSS supplemented with 0.1 mM MgCl2, 2 mM CaCl2, 10 mM HEPES, and 10 mM glucose and incubated at 37 ℃ for 15 min.
(§3) Prior to the fluorescence measurements, all wells to be measured were treated with 0.04% dimethyl sulfoxide (DMSO) to stabilize the oscillation signal. The first recording started 10 min after the addition of DMSO for each plate for 20 min. The effects of the test compound were recorded again starting 60 min after the administration of compounds, for 20 min.
Twenty-five compounds (Table 1) were first dissolved in either DMSO (most compounds) or distilled water depending on the compound, and further diluted with PBS to produce stock solutions concentrated 10-fold. […] The final concentration of DMSO was adjusted to 0.1%. Changes in the fluorescence intensity (FI) produced by Ca^2+ flux were measured at 37 °C for all wells of a 384-well plate simultaneously using the FDSS/µCell system (#C13299, Hamamatsu Photonics, Hamamatsu, Shizuoka, Japan). The excitation and the emission wavelengths were 470 nm and 540 nm, respectively. The recording duration was 20 min with a sampling frequency of 2 Hz for cells cultured under 2D conditions and 10 Hz for cells cultured under 3D conditions.

[2] = system: hiPSC-derived neurons co-cultured with human primary astrocytes in 3D; assay: Ca2+ transient oscillation assay (FDSS), 3D spheroids; assay type: cell-based; conditions: for Area under the curve - 3D Mean / Peak Number—3D Mean / Peak width - 3D Mean / Peak-to-peak interval - 3D Mean: 60 min
From the text: as §1, §2
We used U-shaped-bottom 96-well plates (#174925, Thermo Fisher Scientific) without any prior coating to make a spheroid in each well. Neurons and astrocytes were seeded and maintained as described for 2D cultures, except for the following modifications. First, neurons and astrocytes were seeded in each well of the 96-well plates at the density of 8000 hiPSC neurons with 8000 human primary astrocytes (8000)/well (ratio 1:1). Second, when the differentiation of excitatory neurons was completed one week after seeding, cells were fed with BrainPhys^TM Neuronal Medium (#05793, […] Technologies, Vancouver, BC, Canada) supplemented with 2% SM1 Neuronal Supplement, 1% N2 Supplement-A, and 10% Neuron culture medium for 5 weeks.
Cells maintained as spheroids (3D) in the U-shaped-bottom 96-well plates were transferred into 384-well spheroid plates (#4516, Merck, Corning, NY, USA) with 25 µL of the culture medium. A Ca^2+-indicating dye solution including […] was prepared using the EarlyTox™ Cardiotoxicity Kit (#R8211, Molecular Devices, LLC, San Jose, CA, USA) according to the manufacturer. Then, the same volume of the dye solution was dispensed into each well.
as §3
Twenty-five compounds (Table 1) were first dissolved in either DMSO (most compounds) or distilled water depending on the compound, and further diluted with PBS to produce stock solutions concentrated 10-fold. Then, 5 μL of each compound solution was injected into each well using an automatic pipetting robot (#4505, ASSIST PLUS pipetting robot, Integra Biosciences Corp., Hudson, NH, USA), so that the final concentration of each compound was 1-fold nominal in the well.

[3] = read-out: Area under the curve - 2D Mean
[4] = read-out: Peak amplitude - 2D Mean
[5] = read-out: Peak-to-peak interval - 2D Mean
[6] = symbol, based on % changes of baseline value in the peak number, concentration in parentheses in same cell

Compound | effect on peak number / Ca2+ neuronal oscillations, in words [1] | activation at 0.37 µM [1, 3] [%] | activation at 1.11 µM [1, 3] [%] | activation at 3.33 µM [1, 3] [%] | activation at 10 µM [1, 3] [%] | activation at 0.37 µM ([1]; read-out: Peak Number—2D Mean) [%] | activation at 1.11 µM ([1]; read-out: Peak Number—2D Mean) [%] | activation at 3.33 µM ([1]; read-out: Peak Number—2D Mean) [%] | activation at 10 µM ([1]; read-out: Peak Number—2D Mean) [%] | activation at 0.37 µM [1, 4] [%] | activation at 1.11 µM [1, 4] [%] | activation at 3.33 µM [1, 4] [%] | activation at 10 µM [1, 4] [%] | activation at 0.37 µM ([1]; read-out: Peak width - 2D Mean) [%] | activation at 1.11 µM ([1]; read-out: Peak width - 2D Mean) [%] | activation at 3.33 µM ([1]; read-out: Peak width - 2D Mean) [%] | activation at 10 µM ([1]; read-out: Peak width - 2D Mean) [%] | activation at 0.37 µM [1, 5] [%] | activation at 1.11 µM [1, 5] [%] | activation at 3.33 µM [1, 5] [%] | other results
CN1CCc2cc3c(cc2[C@H]1[C@@H]1OC(=O)c2c1ccc1c2OCO1)OCO3 [Bicuculline] | significantly reduced peak number | 15.8 | 39.6 | 1.6 | 22.8 | -29.4 | -3.5 | 9.9 | 5.8 | -4.1 | 9.3 | -14.1 | 9.8 | 16.1 | 33 | 3.7 | 11.5 | -17.2 | 8.2 | -26.1 | activation at 10 µM [1, 5]: -13.2%; Ca²⁺ Transient Peak Number (2D) [1, 6]: ±; Area under the curve - 3D Mean ([2]; 0.37 µM): 105.2 % change from baseline; Peak Number—3D Mean ([2]; 0.37 µM): −14.9 % change from baseline; Peak width - 3D Mean ([2]; 0.37 µM): −0.3 % change from baseline; Peak-to-peak interval - 3D Mean ([2]; 0.37 µM): 7.6 % change from baseline; Area under the curve - 3D Mean ([2]; 1.11 µM): 108.3 % change from baseline; Peak Number—3D Mean ([2]; 1.11 µM): −13.0 % change from baseline; Peak width - 3D Mean ([2]; 1.11 µM): 5.7 % change from baseline; Peak-to-peak interval - 3D Mean ([2]; 1.11 µM): 20.3 % change from baseline; Area under the curve - 3D Mean ([2]; 3.33 µM): 107.4 % change from baseline; Peak Number—3D Mean ([2]; 3.33 µM): 5.8 % change from baseline; Peak width - 3D Mean ([2]; 3.33 µM): 2.7 % change from baseline; Peak-to-peak interval - 3D Mean ([2]; 3.33 µM): 12.1 % change from baseline; Area under the curve - 3D Mean ([2]; 10 µM): 115.2 % change from baseline; Peak Number—3D Mean ([2]; 10 µM): −5.8 % change from baseline; Peak width - 3D Mean ([2]; 10 µM): 8.5 % change from baseline; Peak-to-peak interval - 3D Mean ([2]; 10 µM): 9.4 % change from baseline; effect on peak number of oscillations, in words ([2]; 3D-cultured): did not significantly change the peak number; Ca²⁺ Transient Peak Number (3D) [2, 6]: ±
C=C(C)[C@H]1CN[C@H](C(=O)O)[C@H]1CC(=O)O [Kainic Acid] |  | 32.3 | 25.2 | -48.2 | -100 | 21 | 26.8 | -53.3 | -100 | 11.8 | -2.2 | -55 | -100 | 22 | 37.4 | -23 | -100 | -1.2 | -19.6 | -53 | response of positive controls on Ca2+ transient oscillations ([1]; 2D, 4-AP 30 µM, kainic acid 100 µM): significant responses; change of Ca2+ neuronal oscillations (Figure 1) ([1]; 4-AP at 30 µM, kainic acid at 10 µM): inhibition; activation at 10 µM [1, 5]: -100%; Area under the curve - 3D Mean ([2]; 0.37 µM): 120.5 % change from baseline; Peak Number—3D Mean ([2]; 0.37 µM): 1.3 % change from baseline; Peak width - 3D Mean ([2]; 0.37 µM): 4.9 % change from baseline; Peak-to-peak interval - 3D Mean ([2]; 0.37 µM): 0.2 % change from baseline; Area under the curve - 3D Mean ([2]; 1.11 µM): 141.9 % change from baseline; Peak Number—3D Mean ([2]; 1.11 µM): 16.4 % change from baseline; Peak width - 3D Mean ([2]; 1.11 µM): 10.6 % change from baseline; Peak-to-peak interval - 3D Mean ([2]; 1.11 µM): −16.0 % change from baseline; Area under the curve - 3D Mean ([2]; 3.33 µM): 174.3 % change from baseline; Peak Number—3D Mean ([2]; 3.33 µM): 18.7 * % change from baseline; Peak width - 3D Mean ([2]; 3.33 µM): 41.9 % change from baseline; Peak-to-peak interval - 3D Mean ([2]; 3.33 µM): −13.0 % change from baseline; Area under the curve - 3D Mean ([2]; 10 µM): 58.3 % change from baseline; Peak Number—3D Mean ([2]; 10 µM): 102.8 ** % change from baseline; Peak width - 3D Mean ([2]; 10 µM): −20.1 % change from baseline; Peak-to-peak interval - 3D Mean ([2]; 10 µM): −45.2 % change from baseline; response of positive controls on Ca2+ transient oscillations ([2]; 3D, 4-AP 30 µM, kainic acid 100 µM): significant responses
NCC(=O)O [glycine] | significantly reduced peak number |  |  |  |  |  |  |  |  |  |  |  |  |  |  |  |  |  |  |  | 
NC[C@H](O)c1ccc(O)c(O)c1 [norepinephrine] | significantly reduced peak number |  |  |  |  |  |  |  |  |  |  |  |  |  |  |  |  |  |  |  | 
